What was measured:
Assay type in all cases: ADME, cell-free; call rule not given here
[1] = Plasma protein binding in rat at 408 ug/ml by ultrafiltration method; conditions: read-out: PPB (converted)
[2] = Plasma protein binding in rat at 816 ug/ml by ultrafiltration method; conditions: read-out: PPB (converted)
[3] = Plasma protein binding in rat at 1020 ug/ml by ultrafiltration method; conditions: read-out: PPB (converted)
[4] = Binding affinity to Hb in rat plasma by SDS-PAGE analysis
[5] = Binding affinity to Hb in rat plasma at 2.5 x 10' -6 to 15 x 10' -6 mmol/l by fluorescence emission spectroscopy
[6] = Binding affinity to Hb in rat plasma at 1.5 x 10' -5 to 2.8 x 10' -5 mmol/l by CD spectroscopy

fraction unbound at 408 ug/ml [1]: 0.3
fraction unbound at 816 ug/ml [2]: 0.29
fraction unbound at 1020 ug/ml [3]: 0.279
Activity [4]: Active
Activity [5]: Active
Activity [6]: Active
SMILES: CC(=O)O[C@H]([C@@H](O)C[C@@H](C)C1=C2C[C@H](O)[C@H]3[C@@]4(C)CCC(=O)C(C)(C)[C@@H]4CC[C@]3(C)[C@@]2(C)CC1)C(C)(C)O

— ChEMBL document CHEMBL3352015, “The binding mechanisms of plasma protein to active compounds in Alismaorientale rhizomes (Alismatis Rhizoma)” (Bioorg Med Chem Lett, 2014)
